Measurements published in patent US20030091978A1, “Assay for glucocorticoid receptor signalling pathway” (priority 2000, published 2003).

How the values were obtained:
Assay type in all cases: cell-based
[1] = system: GRE-mediated gene transcription; test: A549-GRE-Renilla luciferase reporter assay; conditions: A549-GRE-Renilla cells
Excerpt: A synthetic GR responsive promoter consisting of three copies of the consensus glucocorticoid responsive element (GRE) (AGAACAnnnTGTACC) linked to a minimal herpes simplex thymidine kinase (HSV-TK) promoter was derived from the pGRE-SEAP plasmid purchased from Clontech. This was placed upstream of the Renilla luciferase reporter gene, contained in the pRLNull vector (Promega), to create the reporter construct p3GRE-renilla. The GRE containing promoter together with the renilla luciferase gene were then subcloned into the pcDNA3 vector, deleted of the CMV promoter, in order to generate the construct p3GRE-renilla-neo.
(§1) A549 cells were maintained in 5% CO2 at 37° C. in DMEM containing 10% foetal calf serum and 2 mM L-glutamine. Cells were stably transfected with p5NFkB-firefly-neo, p3GRE-renilla-neo or pAPI-firefly-neo using electroporation procedure. […] These cell lines were maintained in DMEM containing 10% foetal calf serum, 2 mM L-glutamine and 1 mg/ml G418.
(§2) Cells were plated into individual wells of a white 96-well viewplate at a cell density of 4×10^4/well in 100 μl of growth medium.
This cell line will provide a means of measuring direct effects of glucocorticoid receptor agonists on GRE-mediated gene transcription.

[2] = system: NFkB driven firefly luciferase activity; test: A549-NFkB-firefly luciferase reporter assay (FireLITE); conditions: A549-NFkB-firefly cells, stimulation with 0.5 ng/ml TNFα
Description: The firefly luciferase gene driven by a promoter containing five copies of the nuclear factor kB consensus sequence (GGGGACTTTCC) was derived from the pNF-kB-Luc plasmid, purchased from Stratagene, and subcloned into the pcDNA3 vector, deleted of the CMV promoter, in order to generate the construct p5NFkB-firefly-neo.
as §1, §2
The individual cell clones were first characterised for responsiveness in isolation.

[3] = system: AP-1 driven firefly-luciferase activity; test: A549-AP1-firefly luciferase reporter assay; conditions: A549-AP1-firefly cells, stimulation with 10 ng/ml EGF
Description: Similarly the minimal region of the Interleukin-2 promoter containing 4 AP-1 binding sites was cloned upstream of the firefly luciferase gene to generate pAP1-firefly-neo
as §1, §2
This cell line can therefore be used to monitor the repression of AP-1 signalling by glucocorticoid receptor ligands.

## C[C@@H]1C[C@H]2[C@@H]3CCC4=CC(=O)C=C[C@]4(C)[C@@]3(F)[C@@H](O)C[C@]2(C)[C@@]1(O)C(=O)CO [dexamethasone]
[1]
  maximal stimulation above basal of renilla luciferase activity: 3 fold

## TNFα
[2]
  increase in firefly luciferase activity: 4.2 fold

## EGF: stimulatory factor used to activate AP-1 driven transcription
[3]
  increase in expression of firefly luciferase: 2.4 fold
